Assays:
SLK = SLK (Homo sapiens, UniProt Q9H2G2); experiment: biochemical
STK10 = STK10 (Homo sapiens, UniProt O94804); experiment: biochemical
Chain of STK10 (O94804 36-294 limits assumed): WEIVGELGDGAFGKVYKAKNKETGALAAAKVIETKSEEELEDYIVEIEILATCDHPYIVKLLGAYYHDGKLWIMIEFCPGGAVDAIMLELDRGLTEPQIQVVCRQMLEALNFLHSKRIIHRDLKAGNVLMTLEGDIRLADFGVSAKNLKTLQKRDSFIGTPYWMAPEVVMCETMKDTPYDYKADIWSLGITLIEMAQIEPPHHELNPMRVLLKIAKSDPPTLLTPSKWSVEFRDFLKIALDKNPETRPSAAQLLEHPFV

Chain of SLK (Q9H2G2 34-292): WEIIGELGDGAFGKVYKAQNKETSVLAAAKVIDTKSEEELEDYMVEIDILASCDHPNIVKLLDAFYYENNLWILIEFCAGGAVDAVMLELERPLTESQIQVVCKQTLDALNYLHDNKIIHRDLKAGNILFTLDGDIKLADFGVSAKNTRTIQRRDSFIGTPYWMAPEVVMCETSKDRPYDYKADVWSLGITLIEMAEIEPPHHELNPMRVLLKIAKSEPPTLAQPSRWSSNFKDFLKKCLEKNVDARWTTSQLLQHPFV

## C#Cc1cccc(Nc2c(C#N)cnc3cc(OC)c(OC)cc23)c1 [compound 82]
SLK
  Ki: 18 nM
STK10
  Ki: 27 nM
